Assay results reported in patent publication US20240294498A1, “FACTOR XIIA INHIBITORS” (Lunac Therapeutics Ltd, priority 2021, published 2024).

Columns and labels:
Assay type in all cases: biochemical
FXIIa = biological target: T1, FXIIa (Homo sapiens, UniProt P00748); test: Determination of Factor XIIa inhibition (chromogenic substrate S-2302); details: human FXIIa alpha, Ki category
T1 construct: FXIIa alpha
T1 sequence (P00748 373-615 limits assumed): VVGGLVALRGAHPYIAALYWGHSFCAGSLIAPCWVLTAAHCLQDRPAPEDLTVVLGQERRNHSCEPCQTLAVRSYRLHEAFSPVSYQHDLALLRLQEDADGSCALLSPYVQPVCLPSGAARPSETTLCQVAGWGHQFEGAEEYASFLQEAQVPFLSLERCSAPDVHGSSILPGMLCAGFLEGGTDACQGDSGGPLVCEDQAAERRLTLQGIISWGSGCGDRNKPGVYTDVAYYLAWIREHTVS
T1 sequence (P00748 20-372 partner limits assumed): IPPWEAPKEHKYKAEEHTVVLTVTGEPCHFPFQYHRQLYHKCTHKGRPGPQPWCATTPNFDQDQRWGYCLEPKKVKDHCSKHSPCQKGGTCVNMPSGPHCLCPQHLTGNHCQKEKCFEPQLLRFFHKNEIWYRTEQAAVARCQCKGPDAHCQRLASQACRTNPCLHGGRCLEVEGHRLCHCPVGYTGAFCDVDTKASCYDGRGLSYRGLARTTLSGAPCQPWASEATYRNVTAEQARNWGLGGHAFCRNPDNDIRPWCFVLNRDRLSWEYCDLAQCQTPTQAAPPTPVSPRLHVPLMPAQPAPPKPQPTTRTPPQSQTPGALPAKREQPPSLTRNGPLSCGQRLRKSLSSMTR
In short: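 Compound preincubated with 10 nM FXIIa for 10 min at 37° C in 50 mM Tris, 137 mM NaCl, pH 7.4, 5% DMSO, top concentration 500 μM; S-2302 added at Km. pNA release followed at 405 nm for 3 h; IC50 from initial rates, converted to Ki via Ki = IC50/(1+[S]/Km).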

FXa = FXa (Homo sapiens, UniProt P00742); test: Determination of selectivity: FXa inhibition (chromogenic substrate S2765); details: fold selectivity for FXIIa over FXa (human); category
Sequence of FXa (P00742 235-488 limits assumed): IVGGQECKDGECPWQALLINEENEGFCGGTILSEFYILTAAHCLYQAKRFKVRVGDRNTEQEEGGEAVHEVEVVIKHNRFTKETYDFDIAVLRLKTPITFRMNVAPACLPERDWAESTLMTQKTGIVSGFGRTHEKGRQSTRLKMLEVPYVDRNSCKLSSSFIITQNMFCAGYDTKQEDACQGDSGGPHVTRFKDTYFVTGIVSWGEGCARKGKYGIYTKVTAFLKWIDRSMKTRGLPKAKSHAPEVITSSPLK
Sequence of FXa (P00742 41-179 partner limits assumed): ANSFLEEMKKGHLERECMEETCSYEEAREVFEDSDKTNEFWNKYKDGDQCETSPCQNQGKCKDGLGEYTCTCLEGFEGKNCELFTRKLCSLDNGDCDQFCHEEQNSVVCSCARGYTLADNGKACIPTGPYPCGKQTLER
In short: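 FXa (5 nM) preincubated with increasing compound (top 500 μM) for 10 mins at 37° C in 50 mM Tris, 137 mM NaCl pH 7.4, 5% DMSO, then S2765 added at its KM. Absorbance at 405 nm followed kinetically for 3 hours; IC50 from initial rates, converted to Ki by Cheng-Prusoff.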

thrombin = biological target: T2, thrombin (Homo sapiens, UniProt P00734); test: Determination of selectivity: thrombin inhibition (chromogenic substrate GPR); details: fold selectivity for FXIIa over thrombin (human); category
T2 construct: FXa (5 nM) and thrombin (5 nM)
In short: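 Thrombin (5 nM) preincubated with increasing compound concentrations (top 500 μM, 5% DMSO) 10 min at 37 °C in 50 mM Tris, 137 mM NaCl pH 7.4, then GPR chromogenic substrate at its KM. pNA release read kinetically at 405 nm for 3 h at 37 °C. IC50 from initial rates, converted to Ki via Cheng–Prusoff.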

Row | SMILES | Ki (FXIIa) | FXa (human)/FXIIa alpha (human) (FXa) | Thrombin (human)/FXIIa alpha (human) (thrombin)
1 | Cc1ccc(C[C@@H]2C[C@@H](C(=O)NCc3ccc4c(cnn4C)c3)N(C(=O)[C@@H]3NCCC[C@@H]3C(=O)N(C)CCN(C)C3CC3)C2)cc1 [Example M06049, (2R,3S)-N-[2-[cyclopropyl(methyl)amino]ethyl]N-methyl-2-[(2S,4R)-2-[(1-methylindazol-5-yl)methylcarbamoyl]-4-(p-tolylmethyl)pyrrolidine-1-carbonyl]piperidine-3-carboxamide] | < 200 nM | ∘∘∘ | +++ (fold selectivity values greater than 100)
2 | CN(C)CCN(C)C(=O)[C@H]1CCCN[C@H]1C(=O)N1C[C@H](Cc2ccc(C3CC3)cc2)C[C@H]1C(=O)NCc1ccc2c(cnn2C)c1 [Example M06060, (2R,3S)-2-((2S,4R)-4-(4-cyclopropylbenzyl)-2-(((1-methyl-1H-indazol-5-yl)methyl)carbamoyl)pyrrolidine-1-carbonyl)-N-(2-(dimethylamino)ethyl)-N-methylpiperidine-3-carboxamide] | < 200 nM | ∘∘∘ | +++ (fold selectivity values greater than 100)
3 | Cc1ccc(C[C@@H]2C[C@@H](C(=O)NCc3ccc4c(cnn4C)c3)N(C(=O)[C@@H]3NCCC[C@@H]3C(=O)N(C)C3CCN(C)CC3)C2)cc1 [Example M06061, (2R,3S)-N-methyl-2-((2S,4R)-2-(((1-methyl-1H-indazol-5-yl)methyl)carbamoyl)-4-(4-methylbenzyl)pyrrolidine-1-carbonyl)-N-(1-methylpiperidin-4-yl)piperidine-3-carboxamide] | < 200 nM | ∘∘∘ | +++ (fold selectivity values greater than 100)
4 | Cc1ccc(C[C@@H]2C[C@@H](C(=O)NCc3ccc4c(cnn4C)c3)N(C(=O)[C@@H]3NCCC[C@@H]3C(=O)N(C)CCCN(C)C)C2)cc1 [Example M06063, (2R,3S)-N-(3-(dimethylamino)propyl)-N-methyl-2-((2S,4R)-2-(((1-methyl-1H-indazol-5-yl)methyl)carbamoyl)-4-(4-methylbenzyl)pyrrolidine-1-carbonyl)piperidine-3-carboxamide] | < 200 nM | ∘∘∘ | +++ (fold selectivity values greater than 100)
5 | Cc1ccc(C[C@@H]2C[C@@H](C(=O)NCc3ccc4c(c3)nnn4C)N(C(=O)[C@@H]3NCCC[C@@H]3C(=O)N3CCC[C@@H]3C(F)(F)F)C2)s1 [Example M06079, (2S,4S)-N-+(1-methylbenzotriazol-5-yl)methyl+-4-+(5-methyl-2-thienyl)methyl+-1-+(2R,3S)-3-+(2R)-2-(trifluoromethyl)pyrrolidine-1-carbonyl+piperidine-2-carbonyl+pyrrolidine-2-carboxamide] | 200 to 800 nM | ∘∘∘ | +++ (fold selectivity values greater than 100)

Continued, in another order:

Row | Ki (FXIIa) | FXa (human)/FXIIa alpha (human) (FXa) | SMILES | Thrombin (human)/FXIIa alpha (human) (thrombin)
6 | < 200 nM | ∘∘∘ | Cc1ccc(C[C@@H]2C[C@@H](C(=O)NCc3ccc4c(cnn4C)c3)N(C(=O)[C@@H]3NCCC[C@@H]3C(=O)N(C)C3CCN(CCF)CC3)C2)cc1 [Example M06083, (2R,3S)—N-[1-(2-fluoroethyl)-4-piperidyl]-N-methyl-2-[(2S,4R)-2-[(1-methylindazol-5-yl)methylcarbamoyl]-4-(p-tolylmethyl)pyrrolidine-1-carbonyl]piperidine-3-carboxamide] | +++ (fold selectivity values greater than 100)
7 | < 200 nM | ∘∘∘ | COCCN1CCC(N(C)C(=O)[C@H]2CCCN[C@H]2C(=O)N2C[C@H](Cc3ccc(C)cc3)C[C@H]2C(=O)NCc2ccc3c(cnn3C)c2)CC1 [Example M06084, (2R,3S)-N-(1-(2-methoxyethyl)piperidin-4-yl)-N-methyl-2-((2S,4R)-2-(((1-methyl-1H-indazol-5-yl)methyl)carbamoyl)-4-(4-methylbenzyl)pyrrolidine-1-carbonyl)piperidine-3-carboxamide] | +++ (fold selectivity values greater than 100)
